Results published in patent US20160304970A1, “GENE BIOMARKER TO DIAGNOSE METASTIC LIVER CANCER AND METHODS FOR TARGETING THE SAME” (University of Southern California, priority 2015, published 2016).
“And” between values parts separate entries of the source, which are not always exact repeats. Identical values can stand only once.

Columns and labels:
TICs [1] = experiment: Cytochrome c release, immunoblot of cytosol and heavy membrane fractions; assay type: cell-based
hepatocytes = experiment: as above; assay type: cell-based; details: within 1-3 hours post treatment
mouse TICs = experiment: TIC xenograft in NOG mice, sorafenib resistance; assay type: in vivo; details: mouse TICs subcutaneously in NOG mice
TICs [2] = details: cited from earlier work
TICs [3] = experiment: Stable-isotope glutaminolysis analysis; assay type: cell-based
Procedure: To test the glutamine utilization, TICs were incubated in 1 mM of [U-^13C5, 2,5-^15N2]-glutamine (Cambridge Isotope Laboratory, Cat # CNLM-1275-H-PK) for 4 hr. When [U-^13C5, 2,5-^15N2]-glutamine is taken up by cells, it loses the ^15N on the 5th carbon and is converted to [U-^13C5, 2-^15N]-glutamate, which loses the ^15N on the 2nd carbon and becomes [U-^13C5]-glutamate after rapid equilibration with TCA cycle intermediate α-ketoglutarate. When glutamine and glutamate were analyzed by gas chromatography mass spectrometry (GC-MS) using electronic impact ionization (EI), their TFA derivatives gave rise to C2-C4 (m/z 152) and C2-C5 (m/z 198) fragments. Thus, the [U-^13C5, 2-^15N]-glutamate has a C2-C4 fragment of m/z 156 (M4; contains 3×^13C and a ^15N) and a C2-C5 fragment of […] (M5; contains 4×^13C and a ^15N), which represent the relative abundance of glutamine taken up by the TICs. On the other hand, [U-^13C5]-glutamate has a C2-C4 fragment of m/z 155 (M3; contains 3×^13C) and a C2-C5 fragment of […] (M4; contains 4×^13C). When the [U-^13C5]-glutamate enters TCA cycle metabolism, it will gradually lose the ^13C carbon after each cycle and generate M2, M1, and M0 C2-C4 fragment and M3, M2, M1, and M0 C2-C5 fragment, which represent the TCA cycle activity. […]

TICs [4] = experiment: ROS levels and spheroid formation of TICs; assay type: cell-based
Procedure: To evaluate the status of mitochondria in TICs, the MitoTracker® Mitochondrion-selective probes for total mitochondrial mass (MitoTracker® Deep Red FM Invitrogen: M22426) and for oxidized state mitochondria (MitoSOX™ Red mitochondrial superoxide indicator) were added to the media, respectively, and cells subjected to FACS analyses. ROS labeling was performed as per the instructions for CellROX® Oxidative stress reagent Probes (CellROX® green reagent, Invitrogen C10444). In brief, the cells were incubated with staining solution (100 nM) in culture media at 37° C. for 30 minutes. After staining was complete, cells were washed with PBS and analyzed by fluorescent microscopy or flow cytometry.

TICs [5] = experiment: Seahorse extracellular flux analysis (OCR, ECAR); assay type: cell-based; details: for FCCP-induced OCR: Nanog silenced TICs, ETO 100 μM
Procedure: To measure cellular bioenergetics using extracellular flux, a Seahorse […] Extracellular Flux Analyzer was used following the published protocol (Ahfeldt et al., 2012; Ferrick et al., 2008). […] Cells were plated in gelatin-coated XF 24-well cell culture microplates at 2-7.5×10^4 cells/well (Seahorse Bioscience) and incubated in pre-warmed unbuffered DMEM medium (DMEM containing 2 mM GlutaMAX, 1 mM sodium pyruvate, 1.85 g l^−1 NaCl and 25 mM glucose) for 1 h. The oxygen consumption was measured by the XF24 extracellular flux analyzer (Seahorse Biosciences) in unbuffered DMEM assay medium supplemented with 1 mM pyruvate and 25 mM glucose after 45 to 60 min equilibration.
The characteristic function of mature hepatocytes is metabolism/thermogenesis, driven by the catabolic breakdown of lipids. To distinguish these tumor cells at a functional level, the oxygen consumption rate (OCR) and extracellular acidification rate (ECAR) were analyzed as previously described (Ahfeldt et al.). It was observed that the basal OCR and ECAR rates were highest in the Nanog-silenced TICs. Compounds were added that modulated mitochondrial function sequentially and measured the effect on OCR and ECAR after the addition of each compound. Oligomycin was first administered to determine ATP turnover and the degree of proton leakage. […] After the addition of the electron transport chain decoupler (FCCP), the maximal respiratory capacity was measured. […] Finally, antimycin was administered to inhibit the flux of electrons through complex III and prevent oxygen consumption by the cytochrome c oxidase in the mitochondria as previously described. For determination of individual ETC complex activities, mitochondrial biogenesis was profiled by adding perturbation drugs: 2 μM oligomycin, 0.5 μM FCCP and 5 μM antimycin A/rotenone, in succession. OCR for complexes II-IV was measured by first inhibiting complex I with rotenone; OCR for complexes III-IV was measured by first inhibiting complex II with […]; and OCR for complex IV was measured by first inhibiting complex III with antimycin. The Etomoxir (ETO, 100 μM)-sensitive component of oxygen consumption rate (OCR) represents FAO. Absolute values of OCR were expressed as pmol min^−1 per 10^6 cells and mpH min^−1 per 10^6 cells. OCR and ECAR were determined by plotting the oxygen tension and acidification of the medium in the chamber as a function of time and normalized to protein concentration (picomoles per minute per milligram), respectively. […]
The ECAR was measured over time at 10 min intervals. […] By uncoupling the proton gradient with FCCP, the maximum OCR rates were determined over the next two time intervals (II). By addition of glycolysis inhibitor (2-DG) or CPT1 inhibitor (ETO), the OCR rates were determined over the next two time intervals (III). […]

TICs [6] = experiment: ATP production measurements; assay type: cell-based; details: inhibitors for 4 hr
Procedure: Relative ATP/cell assays were performed in 96-well plates. After cells were treated with inhibitors for 4 hr, culture media was removed. Cell Titer-Glo (100 μl: Promega) and CyQUANT (Invitrogen) were immediately added to each well. Luminescence and fluorescence readings were consecutively measured after room-temperature incubation for 10 min.

CD133 (+) Huh7 cells = experiment: CD133 cell viability screening (luminescence, CellTiter-Glo); assay type: cell-based; details: Homo sapiens, Huh-7
Procedure: (§1) CD133(+) and CD133(−) Huh7 cells were freshly sorted using the MACS CD133 micro bead kit (Miltenyi Biotec, 130-050-801) and were seeded in 100 μl medium containing 5000 cells per well in a 96-well plate. Once the cells attached, the FDA approved drug library was added to each well to a final concentration of 20 μg/ml in duplicate. After incubation for 48 hours, the cell viability was determined by a luminescence assay. […] After 16 hours, 1 μl of a […] drug solution was individually added to the 96 wells, resulting in a 20 μg/ml final concentration for most compounds. After 48 hours, CellTiter-Glo® Reagent (G8233, Promega) was added and the luminescence signal was measured with an automated plate reader. The raw data for each well was background-corrected by DMSO control wells on the same plate.
Freshly sorted CD133 (+) Huh7 or mouse TICs were plated in 100 μl of medium containing 5000 cells per well in a 96-well plate. After 16 hours, 0.5 μl of a 2 μg/ml, 1 μg/ml, 0.2 μg/ml, 0.1 μg/ml, 0.02 μg/ml, or 0.01 μg/ml compound was added to each well in triplicate, resulting in a 10 μg/ml, 5 μg/ml, 1 μg/ml, 0.5 μg/ml, 0.1 μg/ml, and 0.05 μg/ml final concentration for most compounds, respectively. After 48 hours, the cells were either measured for cell viability by Cell-Glo® Reagent (Promega), or fixed with 1% PFA (paraformaldehyde) and stained with DAPI for high-throughput screening.

[7] = as above; assay type: cell-based; details: human, CD133 (−) Huh7 cells (freshly MACS-sorted)
Procedure: as §1

CNC(=O)c1cc(Oc2ccc(NC(=O)Nc3ccc(Cl)c(C(F)(F)F)c3)cc2)ccn1 [sorafenib]
cytochrome c localisation following sorafenib treatment (TICs [1]; TICs): remained mostly in the heavy membrane (HM) fraction | cytochrome c localisation following sorafenib treatment (hepatocytes): translocated from mitochondria into the soluble fraction | xenograft tumor growth / sorafenib resistance (mouse TICs): very resistant | tumor size reduction (TICs [2]; sorafenib combined with knockdown of YAP1 (Chen et al., 2013)): ~55% | suppression of tumor growth (TICs [2]; sorafenib with antagonism of NANOG in TICs, tumor-bearing mice (Huynh et al., 2009)): ~90%

C=CC(N)CCC(=O)O (stereo not shown) [vigabatrin]
percentage of labeled succinate (TICs [3]): does not reduce

C[n+]1ccc(-c2cc[n+](C)cc2)cc1 [Paraquat]
ROS production (TICs [4]): increased ROS production | tumor spheroid formation of TICs (TICs [4]): significantly reduced

CCOC(=O)[C@@]1(CCCCCCOc2ccc(Cl)cc2)CO1 [ETO, Etomoxir]
FCCP-induced OCR (TICs [5]): antagonized | ECAR (TICs [5]; sh-Nanog-TICs): inhibits | ECAR (TICs [5]; sh-Scr-TICs): does not affect | ATP production (TICs [6]): reduced ATP production | cytochrome c release from mitochondria (TICs [1]; in response to sorafenib treatment): enhanced | xenograft tumor growth / sorafenib resistance (mouse TICs): sensitized TICs to sorafenib

O=CC[C@@H](O)[C@H](O)[C@H](O)CO [2-DG, 2-deoxyglucose]
FCCP-induced OCR (TICs [5]): not | ATP production (TICs [6]): did not significantly lower ATP production

COc1cc(C)c(/C=C/C(C)=C/C=C/C(C)=C/C(=O)O)c(C)c1C [acitretin]
viability at 20 µg/mL (CD133 (+) Huh7 cells; 20 μg/ml, 48 hours): 12% | IC50 (CD133 (+) Huh7 cells; CD133 killing effect, FIG. 44A): 7.37 µg/mL and 22.6 µM | viability at 48 h, 20 μg/ml [7]: 70.4%
